From patent US9655968B2, “Baclofen solution for low-volume therapeutic delivery” (Wayne State University, priority 2007, dated 2017)
≈ marks a conversion by molar mass, not a printed value. Where two headings read alike, the source gives them in different places.

Legend:
[1] = over a 10-year period, near neutral pH, room temperature; calculated, Ahuja 1985; cited from earlier work
[2] = cited from earlier work
[3] = Baclofen solubilization study in multivalent physiologic ion (MPI) solution; type: physicochemical; conditions: aqueous buffer, thermodynamic from solid
Experimental: Multivalent physiologic ion solution formation. A solution (A) is produced with 8.66 g NaCl, 0.224 g KCl, 0.206 g CaCl2.2H2O and 0.163 g MgCl2.6H2O dissolving in 500 mL of deionized water. A solution (B) is produced with 0.214 g Na2HPO4.7H2O and 0.027 g NaH2PO4.H2O dissolving in 450 mL of water. The pH is adjusted to 6.0, 6.5, 7.0, 7.3, 7.6 and 8.0 as necessary with either NaOH or H3PO4 and dilution to final volume of 500 mL with deionized water. A final multivalent physiologic ion solution is obtained by mixing equal parts of Solution A and B. pH is tested and adjusted to the desired final pH if necessary. All reagents are available from sources known in the art. […]
Baclofen solubilization study in multivalent physiologic ion solution. […] The aliquots are analyzed by high performance liquid chromatography (HPLC). […] Baclofen concentrations above 4 mg/ml are readily achieved.
Analyses of baclofen solutions to confirm concentrations. Baclofen concentrations of Examples 2 and 3 are determined to confirm soluble levels in MPI or aCSF in the inventive solutions. Baclofen concentrations are quantified by LC/MS/MS using an Applied Biosystems API 400 electrospray triple quadrupole mass spectrometer. […] The transition between 214.1 and 151.2 is used for quantification. […]
Analyses of baclofen solutions to confirm concentrations. […] Baclofen concentrations are determined within 10% of expected values.

[4] = LIORESAL INTRATHECAL product insert

For `NCC(CC(=O)O)c1ccc(Cl)cc1` (stereo not shown) [Baclofen], the “degradation of dissolved baclofen” value [1] is given as “less than 10%”, the solubility in chloroform [2, 4] is given as “insoluble” and the solubility in methanol [2, 4] is given as “very slightly soluble”. The solubility in water [2, 4] was “slightly soluble”, the “solubility in aqueous saline solution after extreme heating and intense agitation” value ([2]; heating to as much as 100° C., sonication or high speed stirring, US 2006/0009523) was at most 12 mg/mL and the “baclofen concentration by acid dissolution and back titration method” value ([2]; initial dissolution at pH below 3.87, then base added, US 2006/0009523) was about 10 mg/mL. For the same molecule, the maximum saline concentration ([2]; saline) was 2 mg/mL, the “solubility in water or saline (known in the art)” value ([2]; water or saline) was “below 2 mg/mL” and the solubility ([3]; MPI pH 6.0-8.0, 37° C., aliquots at 2, 5 and 30 min, HPLC, read-out: baclofen concentration achieved in MPI solution) was over 4000 µg/mL. The solubility ([3]; rapidly achieved without sonication or excessive agitation, read-out: solubility of baclofen in MPI solution) was 6000 µg/mL (≈ 28.1 mM).
